The record followed here is PubChem BioAssay AID1745844 (Carcinogenic Potency Database (CPDB), 2022).

In this data set the test system is rodent lifetime carcinogenesis bioassay, tumor incidence TD50. In words: chronic cancer bioassays in animals – CPDB, compiled studies (AID 1745844).

Structures are written as SMILES. Active and inactive are the calls of the source. No rule for the calls is given here.

The term TD50 denotes the 50% point of the dose-response relation for the toxic effect studied. On to `c1ccc(NNc2ccccc2)cc1`, for which the TD50 (mouse, strain B6C3F1, females, in feed, site: any site (literature study), lesion: several types, types named in the paper, dosed 78 weeks, study length 95 weeks) was determined as 31.5 mg/kg/day; the TD50 (mouse, strain B6C3F1, females, in feed, site: liver, lesion: hepatocellular adenoma + hepatocellular carcinoma + neoplastic nodule, dosed 78 weeks, study length 95 weeks) is 26 mg/kg/day; the TD50 (mouse, strain B6C3F1, females, in feed, site: liver, lesion: hepatocellular adenoma + hepatocellular carcinoma, dosed 78 weeks, study length 95 weeks) was 26 mg/kg/day; the TD50 (mouse, strain B6C3F1, females, in feed, site: liver, lesion: hepatocellular carcinoma, dosed 78 weeks, study length 95 weeks) is 29.7 mg/kg/day; the TD50 (mouse, strain B6C3F1, females, in feed, site: lung, lesion: alveolar/bronchiolar adenoma + alveolar/bronchiolar carcinoma, dosed 78 weeks, study length 95 weeks) came to 8760 mg/kg/day; the TD50 (mouse, strain B6C3F1, males, in feed, site: liver, lesion: hepatocellular adenoma + hepatocellular carcinoma + neoplastic nodule, dosed 78 weeks, study length 95 weeks) worked out at 1090 mg/kg/day. Moreover, the TD50 is, setting by setting: (rat, strain Fischer 344, females, in feed, site: any site (literature study), lesion: several types, types named in the paper, dosed 78 weeks, study length 106 weeks) 4.5 mg/kg/day; (rat, strain Fischer 344, females, in feed, site: liver + mammary gland, lesion: neoplastic nodule + adenocarcinoma, NOS, dosed 78 weeks, study length 106 weeks) 6.74 mg/kg/day; (rat, strain Fischer 344, females, in feed, site: liver, lesion: hepatocellular adenoma + hepatocellular carcinoma + neoplastic nodule, dosed 78 weeks, study length 106 weeks) 18.1 mg/kg/day; (rat, strain Fischer 344, females, in feed, site: liver, lesion: neoplastic nodule, dosed 78 weeks, study length 106 weeks) 18.1 mg/kg/day; (rat, strain Fischer 344, females, in feed, site: mammary gland, lesion: adenocarcinoma, NOS, dosed 78 weeks, study length 106 weeks) 11.4 mg/kg/day; (rat, strain Fischer 344, males, in feed, site: Zymbal's gland, lesion: squamous-cell carcinoma, dosed 78 weeks, study length 106 weeks) 38.5 mg/kg/day. In addition, the TD50 is 16.2 mg/kg/day (rat, strain Fischer 344, males, in feed, site: adrenal gland, lesion: pheochromocytoma, dosed 78 weeks, study length 106 weeks); 6.85 mg/kg/day (rat, strain Fischer 344, males, in feed, site: any site (literature study), lesion: several types, types named in the paper, dosed 78 weeks, study length 106 weeks); 35.8 mg/kg/day (rat, strain Fischer 344, males, in feed, site: ear canal + Zymbal's gland, lesion: squamous-cell carcinoma + squamous-cell papilloma, dosed 78 weeks, study length 106 weeks); 3.55 mg/kg/day (rat, strain Fischer 344, males, in feed, site: liver + Zymbal's gland, lesion: hepatocellular carcinoma + neoplastic nodule + squamous-cell carcinoma, dosed 78 weeks, study length 106 weeks); 3.7 mg/kg/day (rat, strain Fischer 344, males, in feed, site: liver, lesion: hepatocellular adenoma + hepatocellular carcinoma + neoplastic nodule, dosed 78 weeks, study length 106 weeks); 3.7 mg/kg/day (rat, strain Fischer 344, males, in feed, site: liver, lesion: hepatocellular carcinoma + neoplastic nodule, dosed 78 weeks, study length 106 weeks). Moreover, the TD50 (rat, strain Fischer 344, males, in feed, site: liver, lesion: hepatocellular carcinoma, dosed 78 weeks, study length 106 weeks) was 4.67 mg/kg/day. In addition, the carcinogen call (mouse, strain B6C3F1, males, in feed, site: any site (literature study), lesion: several types, types named in the paper, dosed 78 weeks, study length 95 weeks) was “negative (inactive)”.
`CN(C)c1ccc(Cc2ccc(N(C)C)cc2)cc1`: the TD50 is, setting by setting: (mouse, strain B6C3F1, females, in feed, site: any site (literature study), lesion: several types, types named in the paper, dosed 78 weeks, study length 91 weeks) 280 mg/kg/day; (mouse, strain B6C3F1, females, in feed, site: liver, lesion: hepatocellular adenoma + hepatocellular carcinoma + neoplastic nodule, dosed 78 weeks, study length 91 weeks) 207 mg/kg/day; (mouse, strain B6C3F1, females, in feed, site: liver, lesion: hepatocellular adenoma + hepatocellular carcinoma, dosed 78 weeks, study length 91 weeks) 207 mg/kg/day; (mouse, strain B6C3F1, females, in feed, site: lung, lesion: alveolar/bronchiolar adenoma + alveolar/bronchiolar carcinoma, dosed 78 weeks, study length 91 weeks) 1080 mg/kg/day; (mouse, strain B6C3F1, males, in feed, site: any site (literature study), lesion: several types, types named in the paper, dosed 78 weeks, study length 91 weeks) 367 mg/kg/day (inactive); (mouse, strain B6C3F1, males, in feed, site: liver, lesion: hepatocellular adenoma + hepatocellular carcinoma + neoplastic nodule, dosed 78 weeks, study length 91 weeks) 558 mg/kg/day. The TD50 is, setting by setting: (mouse, strain B6C3F1, males, in feed, site: lung, lesion: alveolar/bronchiolar adenoma + alveolar/bronchiolar carcinoma, dosed 78 weeks, study length 91 weeks) 1410 mg/kg/day; (rat, strain Fischer 344, females, in feed, site: any site (literature study), lesion: several types, types named in the paper, dosed 59 weeks, study length 104 weeks) 41.7 mg/kg/day; (rat, strain Fischer 344, females, in feed, site: liver, lesion: hepatocellular adenoma + hepatocellular carcinoma + neoplastic nodule, dosed 59 weeks, study length 104 weeks) 203 mg/kg/day; (rat, strain Fischer 344, females, in feed, site: liver, lesion: neoplastic nodule, dosed 59 weeks, study length 104 weeks) 203 mg/kg/day; (rat, strain Fischer 344, females, in feed, site: thyroid gland, lesion: follicular-cell adenoma + follicular-cell carcinoma, dosed 59 weeks, study length 104 weeks) 16.4 mg/kg/day; (rat, strain Fischer 344, females, in feed, site: thyroid gland, lesion: follicular-cell carcinoma, dosed 59 weeks, study length 104 weeks) 27.7 mg/kg/day. Besides, the TD50 is, setting by setting: (rat, strain Fischer 344, males, in feed, site: any site (literature study), lesion: several types, types named in the paper, dosed 59 weeks, study length 104 weeks) 42.9 mg/kg/day; (rat, strain Fischer 344, males, in feed, site: thyroid gland, lesion: follicular-cell adenoma + follicular-cell carcinoma, dosed 59 weeks, study length 104 weeks) 16.5 mg/kg/day; (rat, strain Fischer 344, males, in feed, site: thyroid gland, lesion: follicular-cell carcinoma, dosed 59 weeks, study length 104 weeks) 28.6 mg/kg/day.
Turning to `C=CCN(CC(O)CO)N=O` (stereo not drawn), the TD50 was 1.13 mg/kg/day (rat, strain Fischer 344, females, in drinking water, site: esophagus, lesion: carcinoma, dosed 50 weeks, study length 55 weeks); 0.825 mg/kg/day (rat, strain Fischer 344, females, in drinking water, site: esophagus, lesion: several types, types named in the paper, dosed 50 weeks, study length 55 weeks); 0.972 mg/kg/day (rat, strain Fischer 344, females, in drinking water, site: nasal cavity, lesion: several types, types named in the paper, dosed 50 weeks, study length 55 weeks). Further, the carcinogen call (rat, strain Fischer 344, females, in drinking water, site: liver, lesion: neoplastic nodule, dosed 50 weeks, study length 55 weeks) was “negative (inactive)”.
For the compound `O=[N+]([O-])c1ccc(O)c([N+](=O)[O-])c1`, the carcinogen call (mouse, strain DBA, females, in feed, site: mammary gland, lesion: carcinoma, dosed 90 weeks, study length 90 weeks) was “negative (inactive)”.
As for `O=S(=O)(O)c1ccc(N=Nc2c(O)ccc3cc(S(=O)(=O)O)ccc23)cc1`, the carcinogen call was “negative (inactive)” (mouse, strain B6C3F1, females, in feed, site: any site (literature study), lesion: several types, types named in the paper, dosed 103 weeks, study length 104 weeks); “negative (inactive)” (mouse, strain Charles River CD (Sprague-Dawley), females, in feed, site: liver, lesion: one or several types, types not named, dosed 80 weeks, study length 80 weeks); “negative (inactive)” (mouse, strain Charles River CD (Sprague-Dawley), females, in feed, site: lung, lesion: adenoma, dosed 80 weeks, study length 80 weeks); “negative (inactive)” (mouse, strain Charles River CD (Sprague-Dawley), males, in feed, site: liver, lesion: one or several types, types not named, dosed 80 weeks, study length 80 weeks); “negative (inactive)” (mouse, strain Charles River CD (Sprague-Dawley), males, in feed, site: lung, lesion: adenoma, dosed 80 weeks, study length 80 weeks); “negative (inactive)” (rat, strain Not specified, females, in feed, site: liver, lesion: one or several types, types not named, dosed 64 weeks, study length 64 weeks). In addition, the carcinogen call (rat, strain Not specified, males, in feed, site: liver, lesion: one or several types, types not named, dosed 64 weeks, study length 64 weeks) is “negative (inactive)”. The TD50 (mouse, strain B6C3F1, females, in feed, site: lung, lesion: alveolar/bronchiolar adenoma + alveolar/bronchiolar carcinoma, dosed 103 weeks, study length 104 weeks) was found to be 66400 mg/kg/day; the TD50 (mouse, strain B6C3F1, males, in feed, site: any site (literature study), lesion: several types, types named in the paper, dosed 103 weeks, study length 103 weeks) turned out to be 17800 mg/kg/day; the TD50 (mouse, strain B6C3F1, males, in feed, site: liver, lesion: hepatocellular adenoma + hepatocellular carcinoma + neoplastic nodule, dosed 103 weeks, study length 103 weeks) was determined as 14200 mg/kg/day; the TD50 (mouse, strain B6C3F1, males, in feed, site: skin, lesion: fibrosarcoma + fibroma, dosed 103 weeks, study length 103 weeks) is 37500 mg/kg/day (inactive); the TD50 (rat, strain Fischer 344, females, in feed, site: any site (literature study), lesion: several types, types named in the paper, dosed 103 weeks, study length 104 weeks) was 9060 mg/kg/day (inactive); the TD50 (rat, strain Fischer 344, males, in feed, site: any site (literature study), lesion: several types, types named in the paper, dosed 103 weeks, study length 104 weeks) is 11800 mg/kg/day (inactive). The TD50 (rat, strain Fischer 344, males, in feed, site: liver, lesion: hepatocellular adenoma + hepatocellular carcinoma + neoplastic nodule, dosed 103 weeks, study length 104 weeks) was 2520 mg/kg/day; the TD50 (rat, strain Not specified, females, in feed, site: any site (literature study), lesion: several types, types named in the paper, dosed 64 weeks, study length 64 weeks) is 87.4 mg/kg/day (inactive); the TD50 (rat, strain Not specified, males, in feed, site: any site (literature study), lesion: several types, types named in the paper, dosed 64 weeks, study length 64 weeks) was 14000 mg/kg/day (inactive).
Consider `O=S1(=O)CC=CC1`, for which the carcinogen call (mouse, strain B6C3F1, females, by gavage, site: any site (literature study), lesion: several types, types named in the paper, dosed 78 weeks, study length 90 weeks) was “negative (inactive)”. For the same compound, the TD50 by setting is: (mouse, strain B6C3F1, females, by gavage, site: lung, lesion: alveolar/bronchiolar adenoma + alveolar/bronchiolar carcinoma, dosed 78 weeks, study length 90 weeks) 1940 mg/kg/day; (mouse, strain B6C3F1, males, by gavage, site: any site (literature study), lesion: several types, types named in the paper, dosed 78 weeks, study length 90 weeks) 631 mg/kg/day (inactive); (mouse, strain B6C3F1, males, by gavage, site: liver, lesion: hepatocellular adenoma + hepatocellular carcinoma + neoplastic nodule, dosed 78 weeks, study length 90 weeks) 415 mg/kg/day; (mouse, strain B6C3F1, males, by gavage, site: lung, lesion: alveolar/bronchiolar adenoma + alveolar/bronchiolar carcinoma, dosed 78 weeks, study length 90 weeks) 882 mg/kg/day; (rat, strain Osborne-Mendel, females, by gavage, site: any site (literature study), lesion: several types, types named in the paper, dosed 78 weeks, study length 111 weeks) 5370 mg/kg/day (inactive); (rat, strain Osborne-Mendel, males, by gavage, site: any site (literature study), lesion: several types, types named in the paper, dosed 69 weeks, study length 111 weeks) 30.8 mg/kg/day (inactive).
